The supplement of paper PMC10307832

Tests used:
Assay in all cases: relative viability (nuclei count vs DMSO), 5 days (fraction); higher = more cells survive
Bortezomib + Vorinostat = compound: CC(C)C[C@H](NC(=O)[C@H](Cc1ccccc1)NC(=O)c1cnccn1)B(O)O [Bortezomib] + O=C(CCCCCCC(=O)Nc1ccccc1)NO [Vorinostat] (partner 1 µM)
How it was run: (§1)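 Lung cancer cell lines in 1536-well plates got either a single drug or a fixed anchor-drug dose together with five library-drug doses (not always all listed) in √10 steps, by pin tool, on the day after seeding. Nuclei were counted after 5 days, and relative viability is the treated-to-vehicle ratio of nuclei counts. Values are medians of duplicate plates.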

[1] = compound: CC1=CC(=NN1)NC2=CC(=NC(=N2)/C=C/C3=CC=CC=C3)N4CCN(CC4)C + CC(=O)Nc1cccc(-n2c(=O)n(C3CC3)c(=O)c3c(Nc4ccc(I)cc4F)n(C)c(=O)c(C)c32)c1 [Trametinib] (partner 0.02 µM)
How it was run: as §1

[2] = compound: CC1=CC(=NN1)NC2=CC(=NC(=N2)/C=C/C3=CC=CC=C3)N4CCN(CC4)C + Cc1nc(NC(=O)N2CCC[C@H]2C(N)=O)sc1-c1ccnc(C(C)(C)C(F)(F)F)c1 [Alpelisib] (partner 2 µM)
How it was run: as §1

Obatoclax + Dasatinib = compound: COC1=CC(c2cc3ccccc3[nH]2)=N/C1=C\c1[nH]c(C)cc1C [Obatoclax] + Cc1nc(Nc2ncc(C(=O)Nc3c(C)cccc3Cl)s2)cc(N2CCN(CCO)CC2)n1 [Dasatinib] (partner 0.075 µM)
How it was run: as §1

Cell Line	relative viability (Bortezomib + Vorinostat; first compound 0.0002 µM)	relative viability (Bortezomib + Vorinostat; first compound 0.000632 µM)	relative viability (Bortezomib + Vorinostat; first compound 0.002 µM)	relative viability (Bortezomib + Vorinostat; first compound 0.006325 µM)	relative viability (Bortezomib + Vorinostat; first compound 0.02 µM)	relative viability ([1]; first compound 0.08 µM)	relative viability ([1]; first compound 0.253 µM)	relative viability ([1]; first compound 0.8 µM)	relative viability ([1]; first compound 2.53 µM)	relative viability ([1]; first compound 8 µM)	relative viability ([2]; first compound 0.08 µM)	relative viability ([2]; first compound 0.253 µM)	relative viability ([2]; first compound 0.8 µM)	relative viability ([2]; first compound 2.53 µM)	relative viability ([2]; first compound 8 µM)	relative viability (Obatoclax + Dasatinib; first compound 0.01 µM)	relative viability (Obatoclax + Dasatinib; first compound 0.03162 µM)	relative viability (Obatoclax + Dasatinib; first compound 0.1 µM)	relative viability (Obatoclax + Dasatinib; first compound 0.3162 µM)	relative viability (Obatoclax + Dasatinib; first compound 1 µM)
COR-L 105	0.846	0.306	0.824	0.276	0.271	0.427	0.453	0.416	0.276	0.27	0.946	1.08	0.967	0.605	0.186	0.4	0.358	0.372	0.265	0.246
EKVX	0.68	0.805	0.65	0.518	0.198	0.387	0.368	0.394	0.352	0.137	0.856	1.09	0.941	0.675	0.167	0.567	0.491	0.539	0.594	0.522
EMC-BAC-2	0.402	0.467	0.409	0.155	0.143	0.899	0.698	0.938	0.691	0.283	0.748	0.717	0.662	0.521	0.154	0.357	0.325	0.255	0.264	0.284
EPLC-272H	0.333	0.4	0.0774	0.0603	0.0567	0.251	0.261	0.292	0.213	0.126	0.901	1.07	0.79	0.513	0.244	0.36	0.31	0.342	0.264	0.147
H3255	0.811	0.827	0.748	0.253	0.244	0.636	0.45	0.665	0.608	0.271	0.753	0.735	0.772	0.593	0.182	0.301	0.323	0.422	0.348	0.302
HARA	0.512	0.672	0.175	0.0466	0.0668	0.824	0.448	0.65	0.148	0.0692	0.858	0.85	0.974	0.121	0.0791	0.226	0.233	0.335	0.358	0.255
HCC-15	0.864	0.892	0.729	0.107	0.094	0.371	0.378	0.396	0.278	0.0994	0.856	1.03	0.828	0.494	0.0833	0.574	0.589	0.533	0.626	0.368
